{
  "source": "patent US6767522B1",
  "about": "“Method for leaching sulfide-containing materials with microorganisms and use of sulphur-containing amino acids in leaching with microorganisms” (Hahn-Meitner-Institut Berlin GmbH, priority 1998, dated 2004)",
  "system": "Thiobacillus ferrooxidans",
  "experiment": "Bacterial dissolution of pyrite layers with Thiobacillus ferrooxidans in the presence of cysteine",
  "conditions": "for lag phase of bacterial pyrite dissolution: pH 1.6; for pyrite corrosion level (or dissolution rate): pH 1.6, S^o-FeS2 pyrite layer 100 nm, after 10-11 days",
  "experimental": "Each time, 1 cm^3 of pyrite layers 100 nm in thickness (referred to as S^o-FeS2), prepared according to Example 1 using elemental sulfur as precursor, was added with 300 μl of aqueous solutions or suspensions of Thiobacillus ferrooxidans cells and cysteine at concentrations of from 8×10^−2 to 8×10^−5 M in an in situ pyrite culture chamber. The pH value of the solutions was adjusted to 1.6 using Tuovinen buffer (for 1 liter: KH2PO4=0.4 g, MgSO4.7H2O=0.4 g, (NH4)2SO4=0.4 g, […], with no iron(II) being added) [cf., Tuovinen and Kelly, Arch. Mikrobiol. 88, 285-298 (1973)].\nFIG. 1 is a plot of the pyrite corrosion level (or dissolution rate) [%] as a function of time [days] for the various solutions.",
  "data": [
    {"smiles": "N[C@@H](CS)C(=O)O", "note": "[cysteine]", "values": [
      {"measurement": "lag phase of bacterial pyrite dissolution", "setting": "8×10^−4 M cysteine in solution", "value": "no longer occurs"},
      {"measurement": "pyrite corrosion level (or dissolution rate)", "setting": "8×10^−4 M cysteine in solution", "value": 100, "unit": "%"},
      {"measurement": "lag phase of bacterial pyrite dissolution", "setting": "8×10^−5 M cysteine in solution", "value": "no longer occurs"},
      {"measurement": "pyrite corrosion level (or dissolution rate)", "setting": "8×10^−5 M cysteine in solution", "value": 100, "unit": "%"}
    ]}
  ]
}
